Assay results taken from ChEMBL document CHEMBL1155782 (Bioorg Med Chem, 2008).

Key:
Carbonic anhydrase 13 = Carbonic anhydrase 13 (Mus musculus, UniProt Q9D6N1)
Description: Inhibition of mouse carbonic anhydrase 13 by stopped-flow CO2 hydration assay

Carbonic anhydrase 9 = Carbonic anhydrase 9 (Homo sapiens, UniProt Q16790)
Description: Inhibition of human carbonic anhydrase 9 catalytic domain by stopped-flow CO2 hydration assay

Carbonic anhydrase 12 = Carbonic anhydrase 12 (Homo sapiens, UniProt O43570)
Description: Inhibition of human carbonic anhydrase 12 catalytic domain by stopped-flow CO2 hydration assay

Carbonic anhydrase 14 = Carbonic anhydrase 14 (Homo sapiens, UniProt Q9ULX7)
Description: Inhibition of human carbonic anhydrase 14 by stopped-flow CO2 hydration assay

Carbonic anhydrase 3 = Carbonic anhydrase 3 (Homo sapiens, UniProt P07451)
Description: Inhibition of human carbonic anhydrase 3 by stopped-flow CO2 hydration assay

Carbonic anhydrase 4 = Carbonic anhydrase 4 (Homo sapiens, UniProt P22748)
Description: Inhibition of human carbonic anhydrase 4 by stopped-flow CO2 hydration assay

[1] = biological target: Carbonic anhydrase 5A, mitochondrial (Homo sapiens, UniProt P35218)
Description: Inhibition of human carbonic anhydrase 5A by stopped-flow CO2 hydration assay

[2] = biological target: Carbonic anhydrase 5B, mitochondrial (Homo sapiens, UniProt Q9Y2D0)
Description: Inhibition of human carbonic anhydrase 5B by stopped-flow CO2 hydration assay

Carbonic anhydrase 6 = Carbonic anhydrase 6 (Homo sapiens, UniProt P23280)
Description: Inhibition of human carbonic anhydrase 6 by stopped-flow CO2 hydration assay

Carbonic anhydrase 7 = Carbonic anhydrase 7 (Homo sapiens, UniProt P43166)
Sequence of Carbonic anhydrase 7 (P43166 whole entry): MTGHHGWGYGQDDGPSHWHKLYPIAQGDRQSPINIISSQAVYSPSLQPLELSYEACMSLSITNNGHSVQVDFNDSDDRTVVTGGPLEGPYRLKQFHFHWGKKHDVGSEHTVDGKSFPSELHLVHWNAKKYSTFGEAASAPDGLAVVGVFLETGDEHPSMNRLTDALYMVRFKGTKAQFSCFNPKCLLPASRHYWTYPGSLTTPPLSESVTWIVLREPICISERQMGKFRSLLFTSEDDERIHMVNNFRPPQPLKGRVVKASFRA
Description: Inhibition of human carbonic anhydrase 7 by stopped-flow CO2 hydration assay

Sequence of Carbonic anhydrase 12 (O43570 whole entry): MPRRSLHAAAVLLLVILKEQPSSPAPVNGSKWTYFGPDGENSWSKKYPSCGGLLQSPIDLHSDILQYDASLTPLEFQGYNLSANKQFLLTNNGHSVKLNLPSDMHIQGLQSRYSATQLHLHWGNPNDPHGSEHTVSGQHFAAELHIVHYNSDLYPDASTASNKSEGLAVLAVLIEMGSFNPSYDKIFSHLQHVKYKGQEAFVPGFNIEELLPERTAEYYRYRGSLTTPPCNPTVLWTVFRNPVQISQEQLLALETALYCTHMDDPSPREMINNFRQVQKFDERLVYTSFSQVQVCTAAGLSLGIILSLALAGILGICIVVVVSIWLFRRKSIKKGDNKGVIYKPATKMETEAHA
Sequence of Carbonic anhydrase 14 (Q9ULX7 whole entry): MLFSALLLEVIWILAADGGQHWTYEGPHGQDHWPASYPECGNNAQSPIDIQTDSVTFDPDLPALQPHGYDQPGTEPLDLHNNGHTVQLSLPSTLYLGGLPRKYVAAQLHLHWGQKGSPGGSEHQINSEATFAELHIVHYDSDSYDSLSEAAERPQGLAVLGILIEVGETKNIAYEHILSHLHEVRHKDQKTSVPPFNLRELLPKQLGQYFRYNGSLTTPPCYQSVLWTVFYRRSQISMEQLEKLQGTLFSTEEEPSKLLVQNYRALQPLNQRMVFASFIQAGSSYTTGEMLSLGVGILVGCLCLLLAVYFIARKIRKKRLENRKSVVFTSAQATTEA
Sequence of Carbonic anhydrase 13 (Q9D6N1 whole entry): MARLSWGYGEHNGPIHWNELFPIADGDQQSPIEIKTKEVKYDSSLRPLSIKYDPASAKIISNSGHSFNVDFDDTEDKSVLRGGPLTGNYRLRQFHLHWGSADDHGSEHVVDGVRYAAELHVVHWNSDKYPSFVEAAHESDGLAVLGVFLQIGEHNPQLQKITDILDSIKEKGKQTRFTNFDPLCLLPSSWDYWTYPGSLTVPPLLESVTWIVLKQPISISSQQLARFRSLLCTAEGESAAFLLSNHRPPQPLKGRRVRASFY
Sequence of Carbonic anhydrase 3 (P07451 whole entry): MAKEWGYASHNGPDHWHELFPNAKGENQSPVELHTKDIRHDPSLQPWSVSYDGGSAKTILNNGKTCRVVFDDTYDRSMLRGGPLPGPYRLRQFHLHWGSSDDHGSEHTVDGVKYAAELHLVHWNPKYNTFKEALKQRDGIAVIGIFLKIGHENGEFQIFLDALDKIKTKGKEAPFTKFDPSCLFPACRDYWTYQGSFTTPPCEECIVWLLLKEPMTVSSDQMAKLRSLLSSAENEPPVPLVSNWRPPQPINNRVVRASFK
Sequence of Carbonic anhydrase 4 (P22748 whole entry): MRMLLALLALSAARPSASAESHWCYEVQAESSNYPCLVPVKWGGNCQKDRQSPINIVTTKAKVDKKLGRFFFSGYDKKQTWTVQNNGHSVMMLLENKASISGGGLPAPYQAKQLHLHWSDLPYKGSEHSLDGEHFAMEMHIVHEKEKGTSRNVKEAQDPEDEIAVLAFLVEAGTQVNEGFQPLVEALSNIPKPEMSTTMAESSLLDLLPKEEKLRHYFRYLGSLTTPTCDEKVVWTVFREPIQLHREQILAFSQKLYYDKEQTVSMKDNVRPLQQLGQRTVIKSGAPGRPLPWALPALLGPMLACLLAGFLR
Sequence of Carbonic anhydrase 5A, mitochondrial (P35218 whole entry): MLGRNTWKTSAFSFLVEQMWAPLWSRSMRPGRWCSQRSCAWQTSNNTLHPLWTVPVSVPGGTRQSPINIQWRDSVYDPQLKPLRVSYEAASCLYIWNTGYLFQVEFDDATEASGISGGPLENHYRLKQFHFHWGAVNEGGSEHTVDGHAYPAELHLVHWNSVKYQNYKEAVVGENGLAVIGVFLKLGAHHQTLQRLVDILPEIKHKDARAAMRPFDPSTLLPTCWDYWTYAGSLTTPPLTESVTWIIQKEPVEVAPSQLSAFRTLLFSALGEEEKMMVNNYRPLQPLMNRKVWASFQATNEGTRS
Sequence of Carbonic anhydrase 6 (P23280 whole entry): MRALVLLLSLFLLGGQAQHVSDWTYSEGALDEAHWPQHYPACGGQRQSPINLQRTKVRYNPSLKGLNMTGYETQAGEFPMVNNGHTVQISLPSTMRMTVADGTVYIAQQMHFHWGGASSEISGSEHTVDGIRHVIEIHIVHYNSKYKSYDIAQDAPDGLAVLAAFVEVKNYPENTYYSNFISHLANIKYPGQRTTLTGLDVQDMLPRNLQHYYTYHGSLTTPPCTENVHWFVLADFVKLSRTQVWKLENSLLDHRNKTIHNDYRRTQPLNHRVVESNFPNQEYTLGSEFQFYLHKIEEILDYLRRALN
Sequence of Carbonic anhydrase 5B, mitochondrial (Q9Y2D0 whole entry): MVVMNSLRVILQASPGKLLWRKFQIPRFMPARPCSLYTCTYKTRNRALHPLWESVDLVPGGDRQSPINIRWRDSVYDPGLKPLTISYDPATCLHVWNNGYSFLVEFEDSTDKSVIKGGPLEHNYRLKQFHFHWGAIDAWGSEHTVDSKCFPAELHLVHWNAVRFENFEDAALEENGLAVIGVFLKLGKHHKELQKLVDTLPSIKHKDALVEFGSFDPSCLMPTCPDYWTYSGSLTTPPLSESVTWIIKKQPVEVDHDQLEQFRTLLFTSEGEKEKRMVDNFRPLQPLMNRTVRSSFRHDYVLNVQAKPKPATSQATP

Row | Compound | Ki (Carbonic anhydrase 13) | Ki (Carbonic anhydrase 9) | Ki (Carbonic anhydrase 12) | Ki (Carbonic anhydrase 14) | Ki (Carbonic anhydrase 3) | Ki (Carbonic anhydrase 4) | Ki [1] | Ki [2] | Ki (Carbonic anhydrase 6) | Ki (Carbonic anhydrase 7)
1 | Oc1cccc(O)c1 [RESORCINOL] | 62.6 µM | 69.7 µM | 7.5 µM | 10.7 µM | 605 µM | 570 µM | 8.7 µM | 7.1 µM | 550 µM | 644 µM
2 | CC(=O)Nc1ccc(O)cc1 [ACETAMINOPHEN] | 30.3 µM | 70.7 µM | 4.1 µM | 10.6 µM | 7.1 µM | 11.4 µM | 802 µM | 296 µM | 658 µM | 
3 | O=C(O)c1ccc(O)cc1 [PARABEN] | 86 µM | 118 µM | 4.8 µM | 34.3 µM | 696 µM | 809 µM | 9.2 µM |  | 11.4 µM | 716 µM
4 | Oc1ccc(O)cc1 [HYDROQUINONE] | 74.3 µM | 32.5 µM | 7.8 µM | 42 µM | 8.2 µM |  | 14.1 µM | 12.5 µM | 521 µM | 883 µM
5 | Oc1cc(F)ccc1F | 69.5 µM | 68.7 µM | 598 µM | 34 µM | 10.8 µM | 426 µM | 12 µM | 51.2 µM | 90.6 µM | 554 µM
6 | N#Cc1ccc(O)cc1 [4-CYANOPHENOL] | 45 µM | 56 µM |  |  |  | 634 µM | 520 µM | 557 µM |  | 777 µM
7 | Oc1ccccc1O [CATECHOL] | 12.2 µM | 115 µM | 8.9 µM | 48.9 µM | 13 µM |  | 55.1 µM | 4.2 µM | 606 µM | 714 µM
